In patent US20250290916A1 (Antibody Analytics Limited, priority 2022, published 2025):
Entries after “also recorded” stand apart in the source; their conditions may differ.

Assays:
CD4+ and CD8+ T cells = test: Proliferation and IFNγ production of PBMC T cells stimulated with CD3/CD28 Dynabeads; format: cell-based, human; conditions: PBMCs from two donors, concentration series, 96 hrs; for IFNγ production: ELISA; for proliferation of CD4+ T cells / proliferation of CD8+ T cells: proliferation dye
Source text: One of the main considerations for application of the CIP system in immunology assays using primary human immune cells, is the effect that the small molecules (e,g. IAA) may have on cell viability and normal function. For example, one of the main limitations of one of the rapamycin-CIP systems is the high immunoregulatory effect of rapamycin on immune cells that limits its applicability in immunology assays. The inventors assessed the effect of IAA in the function of immune cells. PBMCs from two donors were stimulated with Human T-Activator CD3/CD28 targeting Dynabeads to stimulate T cell activation and proliferation, in the presence of a increasing concentration series of IAA. T cell proliferation and IFNγ production was analysed 96 hrs post stimulation to determine any negative effects on T cells. The concentration series of IAA was selected to reflect the concentration expected to be used in assays. […] Proliferation of CD4+ (A) and CD8+ (B) T cells was assessed by flow cytometry using a proliferation dye. The results are shown in FIG. 3, IFNγ production was assessed by ELISA (panel C), n=3, graphs report […]+SD.
For example one of the main limitation of one of the rapamycin-CIP system is the high immunoregulatory effect of rapamycin on immune cells that limits its applicability in immunology assays.
Peripheral Blood Mononuclear Cells (PBMCs) from two donors were labelled with eBioscience™ Cell Proliferation Dye eFluor™ 670 (ThermoFisher #65-0840-90). […] The cells were incubated for 96 hrs in a humidified incubator at 37° C./6% CO2 at which point proliferation of CD4+ and CD8+ T cells was assessed by flow cytometry. In parallel, supernatants were collected and the levels of IFNγ was analysed by ELISA (Human IFN-gamma DuoSet ELISA, R&D systems #DY285B).

IAA CIP system [1] = test: CD19 expression in CHO-K1 IAA activator 10× i-Scel CD19 reporter cells; format: cell-based
Source text: To test the system in a therapeutically relevant target, a construct expressing CD19 under the control of 10× i-Scel binding sites was introduced into the IAA activator cassette containing CHO-K1 cells and clones isolated. As the purpose of the system is to provide titratable expression of a given receptor (usually a tumour associated antigen) within a biologically relevant range, the CD19 expression was quantified using a Quantibrite bead fluorescence quantification kit which contains multiple bead populations each conjugated with set numbers of fluorophore molecules (PE in this case) per bead. Assuming the fluorophore conjugation to the detection antibody is at a 1:1 ratio (which was confirmed by the manufacture) and antibody binding to the receptor of interest (CD19) occurs at a 1:1 ratio, the number of CD19 receptors per cell can be calculated. By means of comparison, the CD19 expression level of the CD19 positive cells found in peripheral blood mononuclear cells (PBMCs), e.g. B cells, and Ramos cells were calculated in the same experiment.
(§1) Following this incubation, the cells were analysed for CD19 expression by flow cytometry.
CHO-K1 cells containing the IAA activator cassette and a 10× i-Scel CD19 reporter construct were seeded overnight in 96 well plates. […] CD19 expression was assess by flow cytometry and quantified for receptor number per cell. […]

ABA CIP system [2] = test: tagBFP and CD19 reporter expression in HEK293 ABA activator cells; format: cell-based; conditions: 1000 μM ABA, 24 hours
ABA CIP system [3] = test: tagBFP and CD19 reporter expression in CHO-K1 ABA activator cells; format: cell-based
Method: CD19 expression was detected by flow cytometry analysis and the number of CD19 receptors per cell was quantified using a Quantibrite PE bead fluorescence quantification kit (BD Biosciences). The CD19 receptors per cell for Ramos, Raji and B cells isolated from PBMCs are shown by way of comparison.
as §1
CD19 expression was detected by anti-CD19 staining (Biolegend #302254) and flow cytometry analysis. The number of CD19 receptors per cell was quantified using a Quantibrite PE bead fluorescence quantification kit (BD Biosciences #340495).

IAA CIP system [4] = test: IAA-inducible CD19 expression in CHO-K1 cells containing both IAA and ABA CIP systems; format: cell-based; conditions: CHO-K1 IAA CD19 / ABA CD22 cells, ABA concentration series
Method: (§2) CD22 and CD19 expression was measured by flow cytometry and mean fluorescence intensity corresponding to CD22 and CD19 expression was plotted.

CD19 = target: T1, CD19 (Homo sapiens, UniProt P15391); test: T cell engager assay, Jurkat NFAT luciferase reporter cells with CHO-K1 IAA or ABA activator CD19 reporter cells; format: cell-based
T1 construct: expressed in transfected cells
T1 sequence (P15391 20-556): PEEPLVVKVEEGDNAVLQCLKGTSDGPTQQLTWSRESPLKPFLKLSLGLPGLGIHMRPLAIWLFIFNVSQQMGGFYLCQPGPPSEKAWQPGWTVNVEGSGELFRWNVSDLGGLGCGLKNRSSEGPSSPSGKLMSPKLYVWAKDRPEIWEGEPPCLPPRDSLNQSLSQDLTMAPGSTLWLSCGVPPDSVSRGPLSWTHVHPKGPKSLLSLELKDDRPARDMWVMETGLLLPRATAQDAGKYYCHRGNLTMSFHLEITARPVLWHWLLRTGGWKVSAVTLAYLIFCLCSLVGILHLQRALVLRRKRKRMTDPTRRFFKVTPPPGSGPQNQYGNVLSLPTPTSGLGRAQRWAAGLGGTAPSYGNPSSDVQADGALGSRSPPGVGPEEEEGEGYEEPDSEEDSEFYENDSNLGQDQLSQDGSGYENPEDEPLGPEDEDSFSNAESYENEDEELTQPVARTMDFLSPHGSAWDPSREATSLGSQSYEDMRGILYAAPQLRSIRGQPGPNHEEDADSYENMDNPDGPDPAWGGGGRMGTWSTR
Method: This represents a typical assay set up for measuring the effect of a bispecific against cells expressing its target antigen.
NFAT activation was determined by luminescence after 24 hours (48 Hours from assay start) and plotted against CD19 expression quantified by staining with PE anti-CD19 and plotted on a curve generated using Quantibrite PE receptor quantification kit. n=3, graphs report mean±SD.

HEK293 cells = test: Cytotoxicity on HEK293 cells, eFluor780 fixable viability dye, flow cytometry; format: cell-based; conditions: increasing concentrations, 24 hours
Method: (§3) Before IAA was used as an expression inducer for the transduced cell lines, it was assessed for any cytotoxic effects on CHO-K1 and HEK293 cells. Cell viability in both HEK293 and CHO-K1 cells was measured by flow cytometry 24 hours post addition of IAA over the concentration range indicated.
(§4) HEK293 and CHO-K1 cells were treated with the indicated concentrations of IAA for 24 hours before being stained with eFluor780 fixable viability dye and analysed by flow cytometry.

CHO-K1 cells = test: Cytotoxicity on CHO-K1 cells, eFluor780 fixable viability dye, flow cytometry; format: cell-based; conditions: increasing concentrations, 24 hours
Method: as §3, §4

IAA CIP system [5] = test: EGFP reporter expression in HEK293 cells with IAA activator cassette and i-Scel EGFP reporter; format: cell-based; conditions: 24 hours
Source text: (§5) The levels of expression correlate with the number of i-Scel sites, with negligible induction observed at 1× i-Scel and the highest induction over background observed with the 10× i-Scel sites reporter. […] However, the inventors predict, that the inclusion of higher numbers of i-Scel binding sites in the reporter/TAOI cassette, would result in higher levels of induction of the reporter/TAOI.
(§6) Therefore, the 5× and 10× i-Scel binding site pools for HEK293 and CHO-K1 cells were single cell dilution cloned, and colonies picked from each cell pool and then analysed for induction of expression following IAA treatment. […] The HEK293 and CHO-K1 cells containing the IAA activator cassette and the 10× and 5× i-Scel reporter constructs were seeded overnight in 96 well plates. IAA was added at the indicated concentration and the cells were incubated for a further 24 hours. EGFP expression was detected by flow cytometry analysis.
(§7) The HEK293 and CHO-K1 cells containing the IAA activator cassette and the 10× i-Scel reporter construct were seeded overnight in 96 well plates. IAA was added at the indicated concentrations and the cells were incubated for a further 24 hours. EGFP expression was detected by flow cytometry analysis.
(§8) HEK293 and CHO-K1 cells containing the IAA activator cassette and the EGFP reporter constructs were seeded in 6 well plates. Following overnight incubation, the media was replaced with fresh media containing the indicated concentrations of IAA and the cells incubated for a further 24 hours. EGFP expression was detected using a NovoCyte flow cytometer (ACEA).

IAA CIP system [6] = test: EGFP reporter expression in CHO-K1 cells with IAA activator cassette and i-Scel EGFP reporter; format: cell-based; conditions: 24 hours
Source text: as §5, §6, §7, §8

ABA CIP system [7] = test: ABA-inducible CD22 expression in CHO-K1 cells containing both IAA and ABA CIP systems; format: cell-based; conditions: CHO-K1 IAA CD19 / ABA CD22 cells, IAA concentration series
Method: as §2

[8] = CHO-K1 ABA activator cells, 1000 μM ABA, 24 hours

S-(+)-abscisic acid [ABA]
IFNγ production (CD4+ and CD8+ T cells): minimal effects
proliferation of CD4+ T cells (CD4+ and CD8+ T cells): minimal effects
proliferation of CD8+ T cells (CD4+ and CD8+ T cells): minimal effects
CD19 expression from the IAA system (cross-talk) (IAA CIP system [1]; CHO-K1 IAA activator CD19 reporter cells, 1000 μM ABA, 24 hours): does not induce expression
CD19 expression (ABA CIP system [2]): expression of both tagBFP and CD19 was obtained
tagBFP expression (ABA CIP system [2]): expression of both tagBFP and CD19 was obtained
dose dependence of CD19 expression (receptors per cell) (ABA CIP system [3]; CHO-K1 ABA activator 9×Gal4 UAS CD19 clone, ABA concentration range, 48 hours): dose dependent induction of CD19 expression
CD19 expression (ABA CIP system [3]; [8]): expression of both tagBFP and CD19 was obtained
tagBFP expression (ABA CIP system [3]; [8]): expression of both tagBFP and CD19 was obtained
CD19 expression from the IAA CIP system upon ABA (cross-talk in a single cell line) (IAA CIP system [4]): does not induce expression; also recorded: without ABA inducing IAA-activated CD 19 expression

Blincyto: CD19×CD3 targeting bispecific T cell engager
NFAT luciferase signal against number of CD19 receptors (CD19; Blincyto 10 ng/mL and 25 ng/mL, luminescence after 24 hours): concurrent increase in luciferase signal
NFAT luciferase signal at the higher concentration compared to the lower (CD19; Blincyto 25 ng/mL versus 10 ng/mL): higher but remains IAA and ABA dose dependent

O=C(O)Cc1c[nH]c2ccccc12 [IAA, indole-3-acetic acid]
cell viability (percentage of cells which do not take up the dye) (HEK293 cells): no decrease in cell viability was observed
cell viability (percentage of cells which do not take up the dye) (CHO-K1 cells): no decrease in cell viability was observed
IFNγ production (CD4+ and CD8+ T cells): little or no effect
proliferation of CD4+ T cells (CD4+ and CD8+ T cells): little or no effect
proliferation of CD8+ T cells (CD4+ and CD8+ T cells): little or no effect
dose dependence of EGFP expression (IAA CIP system [5]; HEK293 10× i-Scel EGFP clone): dose-dependent induction of EGFP expression
induction of EGFP expression (IAA CIP system [5]; HEK293 stable pools, 1×, 5×, 10× i-Scel sites): induction of expression of EGFP can clearly be seen
additional induction of EGFP at 1000 μM compared to 500 μM (IAA CIP system [5]; HEK293 stable pools): no evidence of additional induction
dose dependence of EGFP expression (IAA CIP system [6]; CHO-K1 10× i-Scel EGFP clone): dose-dependent induction of EGFP expression
induction of EGFP expression (IAA CIP system [6]; CHO-K1 stable pools, 1×, 5×, 10× i-Scel sites): induction of expression of EGFP can clearly be seen
additional induction of EGFP at 1000 μM compared to 500 μM (IAA CIP system [6]; CHO-K1 stable pools): no evidence of additional induction
dose dependence of CD19 expression (receptors per cell) (IAA CIP system [1]; CHO-K1 IAA activator 10× i-Scel CD19 clone, IAA concentration range, 72 hours): a dose dependent range of CD19 expression has been achieved
CD19 expression from the ABA CIP system (cross-talk) (ABA CIP system [3]; CHO-K1 ABA activator CD19 reporter cells, 1000 μM IAA, 24 hours): does not induce expression
CD22 expression from the ABA system upon IAA (cross-talk in a single cell line) (ABA CIP system [7]): does not induce expression; also recorded: without IAA inducing ABA-activated CD22 expression
